Results: patent US6664231B1, “Anti-fungal peptides” (priority 1993, dated 2003)
Like-named read-outs stand apart in the source and are kept apart here.

Experiments:
Type in all cases: cell-based
Candida albicans SLU-1 = test: Radial diffusion assay (Example 3), wild type strain; details: FIG. 2A
Protocol: (§1) For the radial diffusion assays, Candida albicans SLU-1 were grown as described above and SLU-2G were grown overnight in Sabouraud dextrose broth supplemented with 10 μg/mL amphotericin B and 5 μg/mL ceftriaxone at 37° C. Cultures were diluted 1:25 into fresh, unsupplemented broth and allowed to grow for 5 hours at 37° C. Cells were pelleted at 1,500×g for 5 minutes at 4° C. Supernatant was decanted and replaced with 5 mL of 10 mM phosphate buffer, pH 7.4. After centrifugation the cell pellets were resuspended with 5 mL phosphate buffer for an OD570 determination. One OD570 for SLU-1 cells was 3×10^7 CFU/mL and for SLU-2G cells was 5×10^6 CFU/mL.
(§2) Cells were added to 10 mL of molten, cooled (˜45° C.) underlayer agarose to a concentration of 1×10^6/mL and the suspension was poured into a level square petri plate with gentle rocking to allow even distribution and solidification to a uniform thickness of about 1 mm. Wells were cut into the hardened agarose with a sterilize, 3 mm diameter punch with vacuum.
Peptides were two-fold serially diluted with DPBS from a starting concentration of approximately 1 mg/mL. Amphotericin B and nystatin were similarly diluted starting at 100 and 225 μg/mL, respectively. Five μL were added per well and allowed to diffuse at 37° C. for 1.5-2.0 hours. Then 10 mL of molten overlayer agarose were added and the plates were incubated inverted at 37° C. overnight. Plates were stained with a dilute Coomassie solution, inhibition zones were measured with calipers and net areas were calculated, then converted to pmol values by PROBIT analysis. The results of a representative experiment are shown in FIG. 2A for the SLU-1 strain and FIG. 2B for the SLU-2G strain. In FIGS. 2A and 2B, the fungicidal activity is represented for XMP.13 as open circles; for XMP.37 as closed circles; for XMP.97 as open triangles; for XMP.127 as closed triangles; for amphotericin B as open squares; and for nystatin as closed squares. The pmol for a 30 mm^2 zone of inhibition were calculated to be: for XMP.13, 689 pmol against SLU-1 and 129 pmol against SLU-2G; for XMP.37, 231 pmol against SLU-1 and 75 pmol against SLU-2G; for XMP.97, 670 pmol against SLU-1 and 161 pmol against SLU-2G; for XMP.127, 935 pmol against SLU-1 and 116 pmol against SLU-2G; for amphotericin B, 36 pmol against SLU-1 and >541 pmol for SLU-2G; and for nysttin, 98 pmol against SLU-1 and >1,215 pmol against SLU-2G.

[1] = tested on: Candida albicans SLU-2G amphotericin B-resistant strain; test: Radial diffusion assay (Example 3), amphotericin B-resistant strain; details: FIG. 2B
Protocol: Domain III derived peptides were tested for their fungicidal activity on amphotericin resistant Candida. Resistant colonies of Candida were isolated using a gradient plate technique. A slanted Sabouraud dextrose agar plate was poured and allowed to harden. The plate was made level and additional agar supplemented with nystatin (Sigma, St. Louis, Mo., cat. no. N-3503) at a concentration of 10 μg/mL was poured. Cells from the CA-1 colony of Candida albicans SLU-1 strain described in Example 2 (10^7 cells in a volume of 100 μL) were spread over the plate and incubated at […] overnight.
as §1, with “determination.” for “determination. One OD570 for SLU-1 cells was 3×10^7 CFU/mL and for SLU-2G cells was 5×10^6 CFU/mL.”
as §2
Peptides were two-fold serially diluted with DPBS from a starting concentration of approximately 1 mg/mL. […] Five μL were added per well and allowed to diffuse at 37° C. for 1.5-2.0 hours. Then 10 mL of molten overlayer agarose were added and the plates were incubated inverted at 37° C. overnight. Plates were stained with a dilute Coomassie solution, inhibition zones were measured with calipers and net areas were calculated, then converted to pmol values by PROBIT analysis.

Candida albicans = test: Radial diffusion assay, Candida species (Table 2); details: higher effective concentration of agarose than Table 1
Aspergillus ATCC 13073 = test: microbe, parasite or virus in culture
Protocol: (§3) The anti-fungal activity of Domain III derived peptides was evaluated against a variety of fungal species, including species of Candida. Cryptococcus, Fusarium, Trichophyton, and Aspergillus, by an additional assay protocol utilizing Alamar Blue. Alamar Blue is an indicator dye formulated to measure quantitatively the proliferation of a variety of human or animal cells, bacteria, or fungi. It consists of an oxidation-reduction (REDOX) indicator that yields a colorimetric change in response to metabolic activity. For these experiments, species of Candida and Cryptococcus were grown in Sabouraud's dextrose broth (SDB) overnight. Strains of filamentous fungi (Aspergilius, Fusanum, Trichophyton) were obtained by irrigation of a confluent culture from a petri dish. Cells were washed and adjusted to a concentration of 5.0×10^3/mL in fresh SDB. […] Controls included amphotericin B, fluconazole, ketoconazole and griseofulvin. Antifungal drugs were also diluted in the same manner. Assays were performed in 96-well microuiter plates. […] The wells to be plated were determined by OD590 readings. The lowest concentration of peptide which maintained the blue color (or OD reading) of the blank was chosen along with the next two higher concentrations. Plates were allowed to grow for 18-48 hours depending on the rate of growth of each fungus. Minimal fungicidal activity (MFC) was determined as a 99.9% killing of the starting inoculum.

[2] = tested on: Aspergillus niger ATCC 16404; test: microbe, parasite or virus in culture
Protocol: as §3

[3] = tested on: Candida albicans (SLU-1 and ATCC strains); test: microbe, parasite or virus in culture
Protocol: as §3

[4] = tested on: Candida glabrata ATCC 2001; test: microbe, parasite or virus in culture
Protocol: as §3

[5] = tested on: Candida parapsilosis ATCC 22019; test: microbe, parasite or virus in culture
Protocol: as §3

[6] = tested on: Cryptococcus neoformans ATCC 13690; test: microbe, parasite or virus in culture
Protocol: as §3

[7] = tested on: Fusarium solani ATCC 36031; test: microbe, parasite or virus in culture
Protocol: as §3

[8] = tested on: Trychophyton rubrum ATCC 28188; test: organism not typed
Protocol: as §3

Compound: H-KSKVGWLIQLFHKK-NH2 [XMP.13]
- pmol for a 30 mm^2 zone of inhibition against SLU-1 (Candida albicans SLU-1): 689 pmol
- pmol for a 30 mm^2 zone of inhibition against SLU-2G [1]: 129 pmol
- Anti-fungal activity: pmol/30 mm^2 zone, Candida albicans (Candida albicans): 2,233 pmol/30 mm^2 zone

Compound: H-KSKVGWAIQLFHKK-NH2 [XMP.37]
- pmol for a 30 mm^2 zone of inhibition against SLU-1 (Candida albicans SLU-1): 231 pmol
- pmol for a 30 mm^2 zone of inhibition against SLU-2G [1]: 75 pmol

Compound: C[C@@H]1[C@H](O)[C@@H](C)/C=C/C=C/C=C/C=C/C=C/C=C/C=C/[C@H](O[C@@H]2O[C@H](C)[C@@H](O)[C@H](N)[C@@H]2O)C[C@@H]2O[C@](O)(C[C@@H](O)C[C@@H](O)[C@H](O)CC[C@@H](O)C[C@@H](O)CC(=O)O[C@H]1C)C[C@H](O)[C@H]2C(=O)O [Amphotericin B, amphotericin B, reference compound]
- pmol for a 30 mm^2 zone of inhibition against SLU-1 (Candida albicans SLU-1): 36 pmol
- pmol for a 30 mm^2 zone of inhibition against SLU-2G [1]: > 541 pmol
- Anti-fungal activity: pmol/30 mm^2 zone, Candida albicans (Candida albicans): 11 pmol/30 mm^2 zone
- Minimum Fungicidal Concentration, Aspergillus ATCC 13073 (Aspergillus ATCC 13073): 12.50 µg/mL
- Minimum Fungicidal Concentration, Aspergillus niger ATCC 16404 [2]: 5.00 µg/mL
- Minimum Fungicidal Concentration, Candida albicans ATCC 10231 ([3]; strain ATCC 10231): 0.63 µg/mL
- Minimum Fungicidal Concentration, Candida albicans ATCC 18840 ([3]; strain ATCC 18840): 1.25 µg/mL
- Minimum Fungicidal Concentration, Candida albicans ATCC 26555 ([3]; strain ATCC 26555): 1.25 µg/mL
- Minimum Fungicidal Concentration, Candida albicans ATCC 44808 ([3]; strain ATCC 44808): 1.25 µg/mL
- Minimum Fungicidal Concentration, Candida albicans ATCC 90028 ([3]; strain ATCC 90028): 1.25 µg/mL
- Minimum Fungicidal Concentration, Candida albicans SLU-1 ([3]; strain SLU-1): 0.63 µg/mL
- Minimum Fungicidal Concentration, Candida glabrata ATCC 2001 [4]: 0.32 µg/mL
- Minimum Fungicidal Concentration, Candida parapsilosis ATCC 22019 [5]: 5.0 µg/mL
- Minimum Fungicidal Concentration, Cryptococcus neoformans ATCC 13690 [6]: 1.25 µg/mL
- Minimum Fungicidal Concentration, Fusarium solani ATCC 36031 [7]: 0.62 µg/mL
- Minimum Fungicidal Concentration, Trychophyton rubrum ATCC 28188 [8]: 0.32 µg/mL

Compound: H-SKVKWLIQLFHKK-NH2 [XMP.284]
- Minimum Fungicidal Concentration, Aspergillus ATCC 13073 (Aspergillus ATCC 13073; ATCC 13073): 12.50 µg/mL
- Minimum Fungicidal Concentration, Aspergillus niger ATCC 16404 ([2]; ATCC 16404): 2.5 µg/mL
- Minimum Fungicidal Concentration, Candida albicans ATCC 10231 ([3]; SLU-1 and ATCC strains): 5.0 µg/mL
- Minimum Fungicidal Concentration, Candida albicans ATCC 18840 ([3]; SLU-1 and ATCC strains): 2.5 µg/mL
- Minimum Fungicidal Concentration, Candida albicans ATCC 26555 ([3]; SLU-1 and ATCC strains): 1.25 µg/mL
- Minimum Fungicidal Concentration, Candida albicans ATCC 44808 ([3]; SLU-1 and ATCC strains): 1.25 µg/mL
- Minimum Fungicidal Concentration, Candida albicans ATCC 90028 ([3]; SLU-1 and ATCC strains): 1.25 µg/mL
- Minimum Fungicidal Concentration, Candida albicans SLU-1 ([3]; SLU-1 and ATCC strains): 2.50 µg/mL
- Minimum Fungicidal Concentration, Candida glabrata ATCC 2001 ([4]; ATCC 2001): >10.0 µg/mL
- Minimum Fungicidal Concentration, Candida parapsilosis ATCC 22019 ([5]; ATCC 22019): >10.0 µg/mL
- Minimum Fungicidal Concentration, Cryptococcus neoformans ATCC 13690 ([6]; ATCC 13690): 0.63 µg/mL
- Minimum Fungicidal Concentration, Fusarium solani ATCC 36031 ([7]; ATCC 36031): 0.31 µg/mL
- Minimum Fungicidal Concentration, Trychophyton rubrum ATCC 28188 ([8]; ATCC 28188): 5.0 µg/mL
